Experimental data published in patent US7071344B1, “Vitamin D derivatives with cyclopropyl rings in the lateral chains, a method and intermediate products for the production thereof and the utilization thereof for producing medicaments” (Schering AG, priority 1997, dated 2006).

How the values were obtained:
[1] = acute hypercalcemic action (serum-calcium) in rats; type: in vivo, rat; details: dose ratio test substance/calcitriol for comparable hypercalcemic action; one-time subcutaneous administration, male rats
Description: To determine the acute hypercalcemic action of various calcitriol derivatives, the test that is described below is carried out:
The action of control (solution base), reference substance (1,25-dihydroxy vitamin D3=calcitriol) and test substance is tested in each case after one-time subcutaneous administration in groups of 10 healthy male rats (140–170 g). During the testing time, the rats are kept in special cages to determine the excretion of water and mineral substances. Urine is collected in 2 fractions (0–16 hours and 16–22 hours). An oral dose of calcium (0.1 mmol of calcium in 6.5% alpha-hydroxypropylcellulose, 5 ml/animal) replaces at 1600 hours the calcium intake that is lacking by food deprivation. At the end of the test, the animals are killed by decapitation and exsanguinated to determine the serum-calcium values. For the primary screen test in vivo, an individual standard dose (200 μg/kg) is tested. For selected substances, the result is supported by establishing a dose-effect relation.
A hypercalcemic action is shown in serum-calcium level values that are higher than in the control.
The significance of differences between substance groups and controls and between test substance and reference substance are supported with suitable statistical processes.

HL 60 cells = test: differentiation induction of HL 60 cells to macrophages (NBT reduction); type: cell-based, human; details: dose ratio test substance/calcitriol for comparable semi-maximum differentiation induction; 96 hours incubation
Description: The differentiation-stimulating action of calcitriol analogues is also detected quantitatively.
It is known in the literature [Mangelsdorf, D. J. et al., J. Cell. Biol. 98: 391 (1984)] that the treatment of human leukemia cells (promyelocyte cell line HL 60) in vitro with calcitriol induces the differentiation of cells to macrophages.
HL 60 cells are cultivated in tissue culture medium (RPMI 10% fetal calf serum) at 37° C. in an atmosphere of 5% CO2 in air.
For substance testing, the cells are centrifuged off, and 2.0×10^5 cells/ml in phenol red-free tissue culture medium is taken up. The test substances are dissolved in ethanol and diluted with tissue culture medium without phenol red to the desired concentration. The dilution stages are mixed with the cell suspension at a ratio of 1:10, and 100 μl each of this cell suspension that is mixed with substance is pipetted into an indentation of a 96-hole plate. For control, a cell suspension is mixed analogously with the solvent.
After incubation for 96 hours at 37° C. in 5% CO2 in air, 100 μl of an NBT-TPA solution (nitro blue tetrazolium (NBT), final concentration in the batch of 1 mg/ml, tetradecanoyl phorbolmyristate-13-acetate (TPA), final concentration in the batch of 2×10^−7 mol/l) is pipetted into each indentation of the 96-hole plate in the cell suspension.
By incubation for 2 hours at 37° C. and 5% CO2 in air, NBT is reduced to insoluble formazan because of the intracellular oxygen radical release, stimulated by TPA, in the cells that are differentiated to macrophages.
To complete the reaction, the indentations of the 96-hole plate are suctioned off, and the cells are affixed to the bottom of the plate by adding methanol and dried after affixing. To dissolve the intracellular formazan crystals that are formed, 100 μl of potassium hydroxide (2 mol/l) and 100 μl of dimethyl sulfoxide are pipetted into each indentation and ultrasonically treated for 1 minute. The concentration of formazan is measured by spectrophotometry at 650 nm.
As a yardstick for the differentiation induction of HL 60 cells to macrophages, the concentration of formed formazan applies.

calcitriol receptor = molecular target: T1, calcitriol receptor (Sus scrofa, UniProt A3RGC1); test: calcitriol-receptor test (competition with 3H-calcitriol); details: competition factor = concentration of test substance / concentration of calcitriol at 50% competition; protein extract from intestines of juvenile pigs
T1 sequence (A3RGC1 1-427): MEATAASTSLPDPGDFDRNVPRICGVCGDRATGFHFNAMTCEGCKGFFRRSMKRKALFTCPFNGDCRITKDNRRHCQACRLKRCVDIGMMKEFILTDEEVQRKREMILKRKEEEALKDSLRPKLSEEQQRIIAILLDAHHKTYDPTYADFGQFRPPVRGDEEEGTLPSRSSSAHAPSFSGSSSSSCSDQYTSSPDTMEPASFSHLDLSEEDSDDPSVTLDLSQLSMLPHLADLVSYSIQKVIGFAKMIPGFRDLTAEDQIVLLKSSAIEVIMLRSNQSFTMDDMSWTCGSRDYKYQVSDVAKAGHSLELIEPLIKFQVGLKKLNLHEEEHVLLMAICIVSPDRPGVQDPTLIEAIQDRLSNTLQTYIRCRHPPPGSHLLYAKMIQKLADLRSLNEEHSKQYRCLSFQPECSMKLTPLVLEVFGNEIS
Description: The vitamin D activity of the substances according to the invention is determined with the aid of the calcitriol-receptor test. It is carried out using a protein extract from the intestines of juvenile pigs.
Then, the samples are centrifuged at 10,000 g for 5 minutes at 4° C. The supernatant is decanted and measured in a β-counter after 1 hour of equilibration in Picofluor 15™.
The competition curves that are obtained at various concentrations of test substance as well as of reference substance (unlabeled calcitriol) at constant concentration of the reference substance (^3H-calcitriol) are placed in relation to one another, and a competition factor (KF) is determined.
It is defined as a quotient of the concentrations of the respective test substance and the reference substance, which are necessary for 50% competition:

[2] = metabolic stability in liver homogenate; type: in vitro ADME; details: half-life in the liver homogenate (rat)
Description: To determine the metabolic stability, the test substance is incubated with tissue homogenate (from the rat liver) in the presence of buffer systems. The drop in starting concentration is tracked as a function of time. After a certain time, the incubation is stopped, and the unaltered test substance is extracted from the homogenate (diethyl ether), concentrated by evaporation under nitrogen, isolated via HPLC (mobile solvent: acetonitrile/water) and detected using UV-absorption.

Row | DR Ca [1] | KF (calcitriol receptor) | T½ [2] [h] | Structure (SMILES) | DR HL 60 (HL 60 cells)
1 | 100 | 9 | 2 | C=C1/C(=C\C=C2/CCC[C@]3(C)[C@@H]([C@H](C)/C=C/CC4(C(=O)CCC)CC4)CC[C@@H]23)C[C@@H](O)C[C@@H]1O [Compound 71, (5Z,7E,22E)-(1S,3R)-25-(1-Oxobutyl)-26,27-cyclo-9,10-secocholesta-5,7,10(19),22-tetraene-1,3-diol] | 1.7
2 | >>1 | 3 | 1.33 | C=C1/C(=C\C=C2/CCC[C@]3(C)[C@@H]([C@H](C)/C=C/[C@H](O)C4(CC)CC4)CC[C@@H]23)C[C@@H](O)C[C@@H]1O [Compound 214a, (5Z,7E,22E)-(1S,3R,24S)-25-Ethyl-26,27-cyclo-9,10-secocholesta-5,7,10(19),22-tetraene-1,3,24-triol] | 1.5
3 | >100 | 10 | >2 | C=C1C(=CC=C2CCCC3(C)C2CCC3C(C)C=CCCC2(C(=O)CCCC)CC2)CC(O)CC1O [Compound 136, (5Z,7E,22E)-(1S,3R)-25-(1-Oxopentyl)-26,27-cyclo-24a-homo-9,10-secocholesta-5,7,10(19),22-tetraene-1,3-diol] | 17
4 | >100 | 2 | 1.67 | C=C1/C(=C\C=C2/CCC[C@]3(C)[C@@H]([C@H](C)/C=C/[C@@H](O)CCC4(C(=O)CCCC)CC4)CC[C@@H]23)C[C@@H](O)C[C@@H]1O [Compound 182b, (5Z,7E,22E)-(1S,3R,24S)-25-(1-oxopentyl)-26,27-cyclo-24a,24b-dihomo-9,10-secocholesta-5,7,10(19) ,22-tetraene-1,3,24-triol] | 18
5 | >100 | 9 | 1.25 | C=C1/C(=C\C=C2/CCC[C@]3(C)[C@@H]([C@H](C)/C=C/[C@@H](O)C4(CCCCCC)CC4)CC[C@@H]23)C[C@@H](O)C[C@@H]1O [Compound 231b, (5Z,7E,22E)-(1S,3R,24R)-25-hexyl-26,27-cyclo-9,10-secocholesta-5,7,10(19),22-tetraene-1,3,24-triol] | 2
6 | >1 | 1 | 1.67 | C=C1/C(=C\C=C2/CCC[C@]3(C)[C@@H]([C@H](C)/C=C/[C@@H](O)C4(CC)CC4)CC[C@@H]23)C[C@@H](O)C[C@@H]1O [Compound 214b, (5Z,7E,22E)-(1S,3R,24R)-25-ethyl-26,27-cyclo-9,10-secocholesta-5,7,10(19),22-tetraene-1,3,24-triol] | 0.1
